In patent publication US4772596A, “Dihydropyridine derivatives, their preparation and their use” (Sankyo Company Limited, priority 1986, dated 1988):

Key:
[1] = test system: spontaneously hypertensive rats of the SHR strain; assay: Antihypertensive activity in conscious spontaneously hypertensive rats (blood pressure and heart rate); conditions: po; for 12 Hour Area (integrated value of the area above the graph of blood pressure change against time): 12 hours after administration
Protocol: The test animals were spontaneously hypertensive rats of the SHR strain, each aged about 15 weeks. The antihypertensive activities of the test compounds were determined in these rats as follows.
Each animal was anaesthetized with sodium pentobarbital (50 mg/kg, intraperitoneally) and a polyethylene cannula was inserted into the abdominal aorta by the method of Weeks and Jones [J. R. Weeks and J. A. Jones, Proc. Soc. Exptl. […] The other end of the cannula left the animal's body at, and was fixed to, the neck. About 1 week after this surgery, when the animal had completely recovered from surgical stress, the free end of the aortic cannula was connected to a sphygmomanmeter to measure blood pressure and heart rate of the animal directly in the conscious, aparalytic and unrestrained state.
At this time, a test compound suspended in a 0.3% w/v aqueous carboxymethylcellulose solution was administered orally in the dose shown in the following Table 8.
Tmax : the time in hours after administration of the compound under test before the maximum change in blood pressure was recorded;
To 0.5 max : the time in hours after administration of the compound under test which is required for the blood pressure to return to one half of its maximum value;

isolated rat aorta = assay: Calcium antagonism: contractile response of isolated rat aorta to calcium chloride; type: cell-based; conditions: test compound 5 nM
Protocol: An isolated rat aorta was suspended in a calcium-free and high potassium Krebs-Henseleit solution maintained at a temperature of 37° C. The contractile response of the aorta to calcium chloride in concentrations ranging from 10^-5 to 10^-2 M was recorded by means of an isometric transducer. The dose-response curve of the aorta was obtained before and after addition of a test compound at a concentration of 5 nM. Addition of the test compound shifted the dose-response curve to the right, the magnitude of the shift depending upon the potency of the Ca^++ -blocking activity.

[2] = SHR, compared with nifedipine and nicardipine

SMILES | 12 Hour Area (integrated value of the area above the graph of blood pressure change against time) ([1]; 3 mg/kg, SHR) | T0.5 max (time after administration for the blood pressure to return to one half of its maximum value) ([1]; 1 mg/kg, SHR) [h] | Tmax (time after administration before the maximum change in blood pressure) ([1]; 1 mg/kg, SHR) [h] | 12 Hour Area (integrated value of the area above the graph of blood pressure change against time) ([1]; 1 mg/kg, SHR) | other results
COC(=O)C1=C(C)NC(C)=C(C(=O)OC)C1c1ccccc1[N+](=O)[O-] [nifedipine, reference compound] | -237 |  |  |  | heart rate ([1]; SHR): increased heart rate
CC1=C(C(=O)OC(C)C)C(c2cccc(Cl)c2Cl)C(C(=O)OC2CN(C(c3ccccc3)c3ccccc3)C2)=C(N)N1 (stereo not drawn) [Compound 1-59, 3-(1-Benzhydryl-3-azetidinyl) 5-isopropyl 2-amino-4-(2,3-dichlorophenyl)-6-methyl-1,4-dihydropyridine-3,5-dicarboxylate] |  | 12.0 | 6.0 | -203 | 
CC1=C(C(=O)OC(C)C)C(c2cccc([N+](=O)[O-])c2)C(C(=O)OC2CCN(C(c3ccccc3)c3ccccc3)C2)=C(N)N1 (stereo not drawn) [Compound 2-8, 3-(1-Benzhydryl-3-pyrrolidinyl) 5-isopropyl 2-amino-6-methyl-4-(3-nitrophenyl)-1,4-dihydropyridine-3,5-dicarboxylate] |  | 11.2 | 6.0 | -172 | 
COC(=O)C1=C(C)NC(C)=C(C(=O)OCCN(C)Cc2ccccc2)C1c1cccc([N+](=O)[O-])c1 (stereo not drawn) [nicardipine, reference compound] | -175 |  |  |  | T0.5 max (time after administration for the blood pressure to return to one half of its maximum value) ([1]; 3 mg/kg, SHR): 5.3 h; Tmax (time after administration before the maximum change in blood pressure) ([1]; 3 mg/kg, SHR): 0.5 h
CC1=C(C(=O)OC(C)C)C(c2cccc([N+](=O)[O-])c2)C(C(=O)OC2CN(C(c3ccc(F)cc3)c3ccc(F)cc3)C2)=C(N)N1 (stereo not drawn) [Compound 1-68, 3-[1-(4,4'-Difluorobenzhydryl)-3-azetidinyl]5-isopropyl 2-amino-6-methyl-4-(3-nitrophenyl)-1,4-dihydropyridine-3,5-dicarboxylate] |  | 11.8 | 7.0 | -218 | 
CC1=C(C(=O)OC(C)C)C(c2cccc([N+](=O)[O-])c2)C(C(=O)OC2CCCN(C(c3ccccc3)c3ccccc3)C2)=C(N)N1 (stereo not drawn) [Compound 3-8, 3-(1-Benzhydryl-3-piperidyl) 5-isopropyl 2-amino-6-methyl-4-(3-nitrophenyl)-1,4-dihydropyridine-3,5-dicarboxylate] |  | 11.4 | 7.0 | -141 | 
CC1=C(C(=O)OC(C)C)C(c2cccc([N+](=O)[O-])c2)C(C(=O)OC2CN(C(c3ccccc3)c3ccccc3)C2)=C(N)N1 (stereo not drawn) [Compound 1-11, 3-(1-Benzhydryl-3-azetidinyl) 5-isopropyl 2-amino-6-methyl-4-(3-nitrophenyl)-1,4-dihydropyridine-3,5-dicarboxylate] | -334 | 10.4 | 6.0 | -184 | duration of activity (calcium antagonism) (isolated rat aorta; isolated rat aorta): excellent duration of activity; rightwards shift of the calcium chloride dose-response curve (Ca++-blocking activity) (isolated rat aorta; calcium-free high potassium Krebs-Henseleit solution, 37° C): comparable with that of nifedipine; Tmax (time after administration before the maximum change in blood pressure) ([1]; 3 mg/kg, SHR): 5.0 h; duration of the antihypertensive activity [1, 2]: much longer than that produced by nifedipine and nicardipine; time of onset of activity / speed of lowering blood pressure [1, 2]: lowered blood pressure much more slowly than did nifedipine or nicardipine; heart rate ([1]; rat, in vivo): (but not Compound 1-11) increased heart rate
